This note sets out measurements from patent EP1724268A1, “COMPOUND HAVING TGF-BETA INHIBITORY ACTIVITY AND PHARMACEUTICAL COMPOSITION CONTAINING SAME” (KIRIN BEER KABUSHIKI KAISHA, priority 2004, dated 2005).

This assay relates to TGFβ signal. Description: TGFβ signal inhibitory activity, (SBE)4-Luc reporter in A549 cells (Test Examples 1A and 1B). Type of assay: cell-based, human. The following applies: Homo sapiens, A549, read-out: TGFβ inhibition rate, %. In outline: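 Stable A549 line carrying (SBE)4-Luc Smad3-binding reporter treated with compound plus TGFβ-1 (2 ng/ml) for 4 hr; luciferase read by chemiluminescence. Percent inhibition relative to TGFβ-only and untreated cells, tested at 3 µM and 10 µM, some also at 1 µM.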

[1] abbreviates: test compound 3 µM, TGFβ-1 2 ng/ml, 4 hr, Table 1A.
The mark [2] stands for this setting: test compound 10 µM, TGFβ-1 2 ng/ml, 4 hr, Table 1A.
Setting [3] is: test compound 3 µM, Reference Examples, Table 1B.
Setting [4] is: test compound 10 µM, Reference Examples, Table 1B.
[5] abbreviates: 3 µM, compounds of Reference Examples (Test Example 1B).
[6] abbreviates: 10 µM, compounds of Reference Examples (Test Example 1B).

Where two headings read alike, the source gives them in different places.

One may read the inhibition as the change of the read-out against control, counted positive when it falls. On to `Cc1cc(Oc2ccnc3ccc(-c4cccc(N)c4)cc23)c(-c2ccccn2)nc1C` [Compound 10, 3-[4-(5,6-Dimethyl-[2,2']bipyridin-3-yloxy)-quinolin-6-yl]-phenylamine], for which, under setting [1], the inhibition at 3 µM amounted to 100%. Under setting [2], the inhibition at 10 µM was 100%.

For the compound `Cc1cc(Oc2ccnc3ccc(Br)cc23)c(-c2ccccn2)nc1C` [Compound 2, 3-(6-Bromo-quinolin-4-yloxy)-5,6-dimethyl-[2,2']bipyridine], under setting [1], the inhibition at 3 µM amounted to 100%. The inhibition at 10 µM under setting [2] stood at 100%.

On to `COc1cc2c(Oc3ccc(C)cc3C(=O)c3ccccc3)ccnc2cc1OCCCCN1CCC(CO)CC1` [Compound r144], for which the inhibition at 3 µM under setting [3] was determined as 99%. Under setting [4], the inhibition at 10 µM stood at 100%.

For `CCCOC(=O)c1cc2ccccc2cc1Oc1ccnc2cc(OCCCCl)c(OC)cc12` [Compound r325], under setting [5], the inhibition at 3 µM was determined as 19%. The inhibition at 10 µM under setting [6] was determined as 60%.

Regarding `COc1ccc2ncnc(Oc3cc(C)c(C)nc3-c3ccc(C)cn3)c2c1` [Compound 39, 6-Methoxy-4-(5,6,5'-trimethyl-[2,2']bipyridin-3-yloxy)-quinazoline], the inhibition at 3 µM under setting [1] was found to be 88%. The inhibition at 10 µM under setting [2] is 99%.

Turning to `COc1cc2nccc(Oc3cc(C)c(Cl)cc3C(C)=O)c2cc1OC` [Compound r37], under setting [3], the inhibition at 3 µM is 94%. In addition, under setting [4], the inhibition at 10 µM turned out to be 100%.

Take `COc1cc2nccc(Oc3cc(C)c(C)nc3-c3ccccn3)c2cc1O` [Compound 141, 4-(5,6-Dimethyl-[2,2']bipyridinyl-3-yloxy)-7-methoxy-quinolin-6-ol]: under setting [1], the inhibition at 3 µM turned out to be 100%. Under setting [2], the inhibition at 10 µM worked out at 100%.

Consider `COc1cc2c(Oc3cc4cccnc4nc3C)ccnc2cc1OCC(O)CO` (centres unmarked) [Compound r403], for which the inhibition at 3 µM under setting [5] turned out to be 27%. The inhibition at 10 µM under setting [6] is 66%.

Regarding `COc1cc2nccc(Oc3cc4ccncc4cc3-c3cccnc3)c2cc1OC` [r304], under setting [5], the inhibition at 3 µM was 26%. Also, the inhibition at 10 µM under setting [6] amounted to 64%.

Regarding `COc1ccc(C(=O)c2ccccc2)c(Oc2ccnc3cc(OC)c(OC)cc23)c1` [Compound r64], the inhibition at 3 µM under setting [3] stood at 67%. Further, under setting [4], the inhibition at 10 µM came out at 98%.

As to `COc1cc2c(Oc3cc(C)c(C)nc3-c3ccccn3)ccnc2cc1OCCCCO` [Compound r445], the inhibition at 3 µM under setting [5] was 99%.

With `COc1cc2nccc(Oc3ccc(C)nc3-c3cncnc3)c2cc1OC` [Compound r265], the inhibition at 3 µM under setting [5] worked out at 45%. Besides, under setting [6], the inhibition at 10 µM turned out to be 85%.

Take `COc1cc2nccc(Oc3cc(C)c(C)nc3-c3ncccn3)c2cc1OC` [r274]: under setting [5], the inhibition at 3 µM is 97%.

For the compound `COc1cc2nccc(Oc3ccc4ncsc4c3-c3ccccc3)c2cc1OC` [Compound r295], the inhibition at 3 µM under setting [5] stood at 47%. In addition, the inhibition at 10 µM under setting [6] amounted to 96%.

As for `CCc1ccc(Oc2ccnc3cc(OC)c(OC)cc23)c(C(C)=O)c1` [r172], the inhibition at 3 µM under setting [5] is 82%. For the same compound, under setting [6], the inhibition at 10 µM was determined as 99%.

For `COc1cc2nccc(Oc3ccc(SC)nc3-c3ccccn3)c2cc1OC` [Compound r266], the inhibition at 3 µM under setting [5] was 92%. The inhibition at 10 µM under setting [6] is 100%.

Regarding `Cc1cc(Oc2ccnc3ccsc23)c(-c2ccccn2)nc1C` [Compound 28, 5,6-Dimethyl-3-(thieno[3,2-b]pyridin-7-yloxy)-[2,2']bipyridine], the inhibition at 1 µM (test compound 1 µM, TGFβ-1 2 ng/ml, 4 hr, Table 1A) worked out at 96%. Moreover, under setting [1], the inhibition at 3 µM stood at 100%.

Turning to `CCC(=O)c1cc(C)ccc1Oc1ccnc2cc(OC)c(OC)cc12` [Compound r48], the inhibition at 3 µM under setting [3] was 98%. Further, under setting [4], the inhibition at 10 µM came to 100%.

Consider `Cc1cc(Oc2ccnc3cc(Cl)c(C(N)=O)cc23)c(-c2ccccn2)nc1C` [Compound 146, 7-Chloro-4-(5,6-dimethyl-[2,2']bipyridinyl-3-yloxy)-quinoline-6-carboxylic acid amide], for which the inhibition at 3 µM under setting [1] amounted to 54%. The inhibition at 10 µM under setting [2] turned out to be 95%.

In the case of `COc1ccc(Oc2ccnc3cc(OCCCl)c(OC)cc23)c(C(C)=O)c1` [r119], the inhibition at 3 µM under setting [3] stood at 96%. For the same compound, the inhibition at 10 µM under setting [4] worked out at 97%.

As to `COc1cc2nccc(Oc3ccc(C)nc3-c3cccc(F)c3)c2cc1OC` [Compound r240], the inhibition at 3 µM under setting [5] came to 100%. In addition, the inhibition at 10 µM under setting [6] was determined as 100%.

Regarding `CNC(=O)c1cc(OC)ccc1Oc1ccnc2cc(OC)c(OC)cc12` [Compound r110], the inhibition at 3 µM under setting [3] turned out to be 55%. Further, under setting [4], the inhibition at 10 µM was determined as 93%.

For the compound `Cc1cc(Oc2ncnc3ccc(Cl)cc23)c(-c2ccccn2)nc1C` [Compound 24, 6-Chloro-4-(5,6-dimethyl-[2,2']bipyridin-3-yloxy)-quinazoline], the inhibition at 3 µM under setting [1] worked out at 90%. Also, the inhibition at 10 µM under setting [2] worked out at 99%.

Take `COc1ccc(Oc2ccnc3cc(O)c(OC)cc23)c(C(C)=O)c1` [r312]: the inhibition at 3 µM under setting [5] is 50%. Moreover, the inhibition at 10 µM under setting [6] was 76%.

As to `COc1cc2nccc(Oc3ccc(C)nc3-c3cccc(CO)c3)c2cc1OC` [Compound r231], the inhibition at 3 µM under setting [5] was 100%. For the same compound, the inhibition at 10 µM under setting [6] was determined as 100%.

For the compound `COc1cc2nccc(Oc3ccc(C)cc3-c3cccnc3)c2cc1OC` [r168], the inhibition at 3 µM under setting [5] is 22%. The inhibition at 10 µM under setting [6] came out at 74%.

Turning to `Cc1cc(Oc2ccnc3cc(-c4ncccn4)ccc23)c(-c2ccccn2)nc1C` [Compound 177, 5,6-Dimethyl-3-(7-pyrimidin-2-yl-quinolin-4-yloxy)-[2,2']blpyridine], the inhibition at 3 µM under setting [1] is 98%. Under setting [2], the inhibition at 10 µM was 100%.

In the case of `CCC(O)c1cc(C)ccc1Oc1ccnc2cc(OC)c(OC)cc12` (centres unmarked) [Compound r9, 1-{2-[(6,7-Dimethoxy-4-quinolyl)oxy]-5-methylphenyl}-1-propanol], the inhibition at 3 µM under setting [3] is 29%. In addition, the inhibition at 10 µM under setting [4] is 77%.

For `COc1cc2nccc(Oc3cc(C)c(C)nc3-c3ccccn3)c2cc1-c1cccnc1` [Compound 155, 3-(7-Methoxy-6-pyridin-3-yl-quinotin-4-yloxy)-5,6-dimethyl-[2,2']bipyridine], the inhibition at 3 µM under setting [1] turned out to be 99%. In addition, under setting [2], the inhibition at 10 µM is 100%.

In the case of `COc1cc2nccc(Oc3ccc(C)cc3Nc3ccccc3)c2cc1OC` [Compound r14, N-[2-[(6,7-Dimethoxy-4-quinolyl)oxy]-5-methylphenyl]-N-phenylamine], the inhibition at 3 µM under setting [3] worked out at 15%. For the same compound, the inhibition at 10 µM under setting [4] was 64%.

On to `Cc1ccc(-c2ccc3nccc(Oc4cc(C)c(C)nc4-c4ccccn4)c3c2)cc1` [Compound 8, 5,6-Dimethyl-3-(6-p-tolyl-quinolin-4-yloxy)-[2,2']bipyridine], for which the inhibition at 3 µM under setting [1] amounted to 60%. In addition, the inhibition at 10 µM under setting [2] came out at 100%.

As for `CCC(=O)c1cc(OC)ccc1Oc1ccnc2cc(OC)c(OC)cc12` [Compound r50], the inhibition at 3 µM under setting [3] was 100%. Further, the inhibition at 10 µM under setting [4] stood at 100%.

For `COc1cc2nccc(Oc3ccc4c(ccn4C(C)=O)c3)c2cc1OC` [Compound r21], under setting [3], the inhibition at 3 µM came out at 16%. Also, under setting [4], the inhibition at 10 µM stood at 71%.

For the compound `Cc1cc(Oc2ccnc3cc(-c4ccccn4)ccc23)c(-c2ccccn2)nc1C` [Compound 176, 5,6-Dimethyl-3-(7-pyridin-2-yl-quinolin-4-yloxy)-[2,2']bipyridine], under setting [1], the inhibition at 3 µM came out at 99%. The inhibition at 10 µM under setting [2] was determined as 100%.

As to `COc1cc2c(Oc3cc(C)c(C)nc3-c3ccccc3)ccnc2cc1OCC(O)CO` (centres unmarked) [Compound r335], under setting [5], the inhibition at 3 µM came out at 100%.

For the compound `Cc1cc(Oc2ccnc3cccnc23)c(-c2ccccn2)nc1C` [Compound 30, 4-(5,6-Dimethyl-[2,2']bipyridin-3-yloxy)-[1,5]naphthyridine], the inhibition at 3 µM under setting [1] is 84%. Further, the inhibition at 10 µM under setting [2] was 99%.

Turning to `COc1cc2nccc(Oc3cc4cccnc4nc3-c3ccc(Br)cc3)c2cc1OC` [Compound 85, 2-(4-Bromo-phenyl)-3'-(6,7-dimethoxy-quinolin-4-yloxy)-[1,8]naphthyridine], the inhibition at 3 µM under setting [1] turned out to be 48%. Further, the inhibition at 10 µM under setting [2] stood at 97%.

With `COc1cc2c(Oc3cc(C)c(C)nc3-c3ccccn3)ccnc2cc1OCCO` [Compound r339], the inhibition at 3 µM under setting [5] worked out at 100%.

For the compound `Cc1cc(Oc2ccnc3cc(-c4cccc(N)c4)ccc23)c(-c2ccccn2)nc1C` [Compound 21, 3-[4-(5,6-Dimethyl-[2,2']bipyridin-3-yloxy)-quinolin-7-yl]-phenylamine], the inhibition at 3 µM under setting [1] was found to be 99%. Besides, the inhibition at 10 µM under setting [2] is 100%.

On to `COc1ccc(Oc2ccnc3cc(OC)c(OC)cc23)c(C(=O)NC2CCCCC2)c1` [Compound r112], for which the inhibition at 3 µM under setting [3] was found to be 44%. Besides, the inhibition at 10 µM under setting [4] worked out at 91%.

As for `COc1cc2c(Oc3ccc(C)cc3C(=O)c3ccccc3)ccnc2cc1OCCCCn1ccnc1` [Compound r150], the inhibition at 3 µM under setting [3] is 97%. The inhibition at 10 µM under setting [4] was 100%.

For `COc1cc2c(Oc3cc4cccnc4nc3C)ccnc2cc1OCCCl` [Compound r398], under setting [5], the inhibition at 3 µM was 78%. In addition, the inhibition at 10 µM under setting [6] stood at 97%.

For `COc1cc2nccc(Oc3cc4ccccc4nc3-c3cc(C)c(Cl)s3)c2cc1OC` [r290], the inhibition at 3 µM under setting [5] is 18%. Moreover, under setting [6], the inhibition at 10 µM was determined as 57%.

Turning to `COc1cc2nccc(Oc3cc4ccccc4cc3C(=O)Nc3cccc4ccccc34)c2cc1OC` [r114], the inhibition at 3 µM under setting [3] worked out at 0%. Besides, under setting [4], the inhibition at 10 µM turned out to be 96%.

On to `COc1cc2nccc(Oc3ccc(C)cc3C(=O)c3ccco3)c2cc1OC` [Compound r60], for which the inhibition at 3 µM under setting [3] turned out to be 63%. The inhibition at 10 µM under setting [4] was found to be 98%.
